We go through 15 compounds from patent publication US12378241B2, “Pyridine derivative as FGFR and VEGFR dual inhibitors” (CGeneTech (Suzhou,China) CO., Ltd., priority 2019, dated 2025).

Where a name gives a salt, the structure may show the parent alone. Read-outs that look alike come from different tables or passages of the source.

In general, IC50 refers to the concentration that gives 50% inhibition. Usually AUC(0-inf) stands for total exposure, with the tail of the curve extrapolated. A low value points to less exposure. The AUC(0-t) is the area under the concentration-time curve up to a stated or last time point. A higher AUC(0-t) goes with more exposure. A word on the half-life: it is the time in which the quantity being followed falls by half. A high value points to slow decline. What is called bioavailability is the share of a dose that reaches the circulation, judged against a reference dose that is usually intravenous. For orientation: Tmax means the time from dosing to the highest level. In general, Cmax refers to the peak of the concentration-time curve.

For one data set, the target named is human VEGFR2 (Homo sapiens (Human), UniProt P35968). In words: 33P isotope-labeled kinase activity test (Reaction Biology Corp), VEGFR2. In kind it is biochemical. To be noted: ATP 10 μM. The protocol: (§1) The IC50 value was determined using ^33P isotope-labeled kinase activity test (Reaction Biology Corp) to evaluate the inhibitory ability of the compounds to be tested on human FGFR1, FGFR2 and VEGFR2.
Sequence of human VEGFR2 (P35968 20-1356): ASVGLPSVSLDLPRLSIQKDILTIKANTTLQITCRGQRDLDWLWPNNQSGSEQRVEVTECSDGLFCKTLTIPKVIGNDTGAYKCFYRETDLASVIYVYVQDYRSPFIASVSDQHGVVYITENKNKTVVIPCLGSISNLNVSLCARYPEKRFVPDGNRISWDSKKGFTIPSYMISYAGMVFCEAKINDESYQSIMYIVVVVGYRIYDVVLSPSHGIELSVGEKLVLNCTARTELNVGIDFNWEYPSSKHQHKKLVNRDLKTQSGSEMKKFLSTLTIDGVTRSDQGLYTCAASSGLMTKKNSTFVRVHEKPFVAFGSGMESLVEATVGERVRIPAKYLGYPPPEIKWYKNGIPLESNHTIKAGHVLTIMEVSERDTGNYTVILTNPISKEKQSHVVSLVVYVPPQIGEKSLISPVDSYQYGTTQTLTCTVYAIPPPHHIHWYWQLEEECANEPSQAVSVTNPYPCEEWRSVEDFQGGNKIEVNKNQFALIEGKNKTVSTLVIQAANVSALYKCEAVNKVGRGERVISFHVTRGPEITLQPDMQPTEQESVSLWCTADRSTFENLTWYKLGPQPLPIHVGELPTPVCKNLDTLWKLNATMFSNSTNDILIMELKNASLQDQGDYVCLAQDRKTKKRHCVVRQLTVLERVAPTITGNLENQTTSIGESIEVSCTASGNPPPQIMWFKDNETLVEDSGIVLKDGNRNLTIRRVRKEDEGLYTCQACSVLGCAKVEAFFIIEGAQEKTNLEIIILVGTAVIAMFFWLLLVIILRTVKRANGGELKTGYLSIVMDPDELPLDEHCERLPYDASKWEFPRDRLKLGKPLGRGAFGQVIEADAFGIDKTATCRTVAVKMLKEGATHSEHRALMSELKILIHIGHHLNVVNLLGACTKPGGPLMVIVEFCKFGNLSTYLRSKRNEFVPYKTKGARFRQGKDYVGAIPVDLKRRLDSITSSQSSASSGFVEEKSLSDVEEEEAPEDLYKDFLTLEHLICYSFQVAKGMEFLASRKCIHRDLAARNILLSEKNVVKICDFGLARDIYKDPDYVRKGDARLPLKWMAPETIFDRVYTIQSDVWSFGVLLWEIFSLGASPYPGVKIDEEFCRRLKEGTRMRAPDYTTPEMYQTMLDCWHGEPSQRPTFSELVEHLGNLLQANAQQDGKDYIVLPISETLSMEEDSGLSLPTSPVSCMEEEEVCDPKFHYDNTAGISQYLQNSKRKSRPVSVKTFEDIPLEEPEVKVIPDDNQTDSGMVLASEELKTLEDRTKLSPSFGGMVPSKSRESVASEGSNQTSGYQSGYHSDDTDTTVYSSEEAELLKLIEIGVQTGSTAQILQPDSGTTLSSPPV
(§2) Buffer conditions: 20 mM Hepes (pH 7.5), 10 mM MgCl2, 1 mM EGTA, 0.02% Brij35, 0.02 mg/mL BSA, 0.1 mM Na3VO4, 2 mM DTT, 1% DMSO.
(§3) Test steps: At room temperature, the compounds to be tested were dissolved in DMSO to prepare a 10 mM solution for use. The substrate was dissolved in the newly-prepared buffer, and the kinase to be tested was added thereto and mixed well. The DMSO solution in which the compounds to be tested were dissolved was added to the above-mentioned homogeneous reaction mixture using acoustic technology (Echo 550). […] After incubating for 15 minutes, ^33P-ATP (activity: 0.01 μCi/μL, with corresponding concentration listed in Table 4) was added to the reaction mixture to start the reaction. […] The kinase activity data was expressed by comparing the kinase activity of the groups containing the compounds to be tested with that of the blank group (containing only DMSO).

The next data set has as its target human FGFR2 (Homo sapiens (Human), UniProt P21802). The experiment in a line: 33P isotope-labeled kinase activity test (Reaction Biology Corp), FGFR2. To be noted: ATP 5 μM. In kind it is biochemical. The protocol: as §1, §2, §3
The target of another data set is human FGFR1 (Homo sapiens (Human), UniProt P11362). In words: 33P isotope-labeled kinase activity test (Reaction Biology Corp), FGFR1. In kind it is biochemical. The settings on record: ATP 5 μM. How it is done: as §1, §2, §3
Sequence of human FGFR1 (P11362 22-822): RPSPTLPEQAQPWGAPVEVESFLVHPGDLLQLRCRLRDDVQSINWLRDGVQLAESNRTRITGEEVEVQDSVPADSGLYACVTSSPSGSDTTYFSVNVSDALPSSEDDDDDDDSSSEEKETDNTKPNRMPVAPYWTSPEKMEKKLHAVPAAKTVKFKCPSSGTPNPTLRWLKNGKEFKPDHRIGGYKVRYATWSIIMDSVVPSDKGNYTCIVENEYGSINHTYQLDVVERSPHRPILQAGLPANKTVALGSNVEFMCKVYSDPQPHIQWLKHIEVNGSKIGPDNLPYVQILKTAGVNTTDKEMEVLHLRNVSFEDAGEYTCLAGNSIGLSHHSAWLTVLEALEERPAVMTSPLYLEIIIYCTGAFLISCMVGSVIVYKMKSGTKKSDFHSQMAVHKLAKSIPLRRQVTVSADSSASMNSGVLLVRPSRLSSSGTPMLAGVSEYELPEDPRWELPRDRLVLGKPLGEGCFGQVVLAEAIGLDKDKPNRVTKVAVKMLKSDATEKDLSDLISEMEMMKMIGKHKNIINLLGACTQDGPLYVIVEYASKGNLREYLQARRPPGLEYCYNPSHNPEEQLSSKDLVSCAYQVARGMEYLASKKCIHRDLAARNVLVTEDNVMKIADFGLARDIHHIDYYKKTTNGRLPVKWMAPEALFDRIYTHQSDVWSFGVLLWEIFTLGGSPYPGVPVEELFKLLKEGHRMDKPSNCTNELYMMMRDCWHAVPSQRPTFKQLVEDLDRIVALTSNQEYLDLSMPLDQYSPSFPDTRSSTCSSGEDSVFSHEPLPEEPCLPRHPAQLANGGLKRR
Data set [1] can be described thus: Evaluation of the pharmacokinetics in female Balb/c mice (IV and PO). In kind it is in vivo. The settings on record: for Tlast / AUC(0-inf) / AUC(0-t) / clearance / half-life / MRT last / Vd / bioavailability / Tmax / C0 / Cmax: female Balb/c mice; for AUC(0-inf) / AUC(0-t) / clearance / half-life / MRT last / Vd / bioavailability / Tmax / C0 / Cmax: mouse, plasma; for MRT last: read-out: MRT0-last; for Vd: read-out: Vdss; for bioavailability: read-out: F (bioavailability). How it is done:
[…] […] About 30 μL blood samples were collected from the jugular vein at 0.0833, 0.25, 0.5, 1.0, 2.0, 4.0, 8.0, 24 h after administration and from the tail vein at 0.25, 0.5, 1.0, 2.0, 4.0, 8.0, 24 h after administration, and the blood samples were put in an anticoagulation tube containing EDTA-K2, the plasma was separated by centrifugation. The LC-MS/MS method was used to determine the blood drug concentration, the WinNonlin™ Version 6.3 (Pharsight, Mountain View, CA) pharmacokinetic software was used to calculate the relevant pharmacokinetic parameters by the non-compartmental model linear logarithmic ladder method.

In data set [2] the test system is human gastric cancer SNU-16. In words: Anti-tumor activity in mouse subcutaneous xenograft tumor model of human gastric cancer SNU-16. In kind it is in vivo, nude mice. To be noted: PO 10/20/40 mg/kg QD (20 mg/kg from day 8, 40 mg/kg from day 17). The protocol: To study the anti-tumor effect of the compounds of the present disclosure in a mouse subcutaneous xenograft tumor model of human gastric cancer SNU-16.
Preparation of tumor tissues: SNU-16 cells were routinely cultured in an RPMI-1640 culture medium containing 10% fetal bovine serum under the conditions of 5% CO2, 37° C. and saturated humidity. According to cell growth, the cells were passaged or refilled 1 to 2 times a week with a passage ratio of 1:3 to 1:4.
SNU-16 cells at the logarithmic growth phase were collected, counted and then resuspended in a 50% serum-free RPMI-1640 culture medium and 50% Matrigel, and cell concentration was adjusted to 4×10^7 cells/mL; the cells were placed in an ice box, and the cell suspension was suctioned with a 1 mL syringe, and subcutaneously injected into the anterior right axillary of nude mice, each animal was inoculated with 200 μL (8×10^6 cells/mouse) to establish a SNU-16 xenograft model. The animal status was observed regularly, and the tumor diameter was measured with an electronic vernier caliper. […]
3) The tumor diameter was measured twice a week to calculate the tumor volume, and the animal body weight was weighed and recorded. […]
The anti-tumor efficacy of the compounds was evaluated by TGI (%) or relative tumor proliferation rate T/C (%). […] The relative tumor volume (RTV) was calculated according to the results of the tumor measurement. […]

Sequence of human FGFR2 (P21802 22-821): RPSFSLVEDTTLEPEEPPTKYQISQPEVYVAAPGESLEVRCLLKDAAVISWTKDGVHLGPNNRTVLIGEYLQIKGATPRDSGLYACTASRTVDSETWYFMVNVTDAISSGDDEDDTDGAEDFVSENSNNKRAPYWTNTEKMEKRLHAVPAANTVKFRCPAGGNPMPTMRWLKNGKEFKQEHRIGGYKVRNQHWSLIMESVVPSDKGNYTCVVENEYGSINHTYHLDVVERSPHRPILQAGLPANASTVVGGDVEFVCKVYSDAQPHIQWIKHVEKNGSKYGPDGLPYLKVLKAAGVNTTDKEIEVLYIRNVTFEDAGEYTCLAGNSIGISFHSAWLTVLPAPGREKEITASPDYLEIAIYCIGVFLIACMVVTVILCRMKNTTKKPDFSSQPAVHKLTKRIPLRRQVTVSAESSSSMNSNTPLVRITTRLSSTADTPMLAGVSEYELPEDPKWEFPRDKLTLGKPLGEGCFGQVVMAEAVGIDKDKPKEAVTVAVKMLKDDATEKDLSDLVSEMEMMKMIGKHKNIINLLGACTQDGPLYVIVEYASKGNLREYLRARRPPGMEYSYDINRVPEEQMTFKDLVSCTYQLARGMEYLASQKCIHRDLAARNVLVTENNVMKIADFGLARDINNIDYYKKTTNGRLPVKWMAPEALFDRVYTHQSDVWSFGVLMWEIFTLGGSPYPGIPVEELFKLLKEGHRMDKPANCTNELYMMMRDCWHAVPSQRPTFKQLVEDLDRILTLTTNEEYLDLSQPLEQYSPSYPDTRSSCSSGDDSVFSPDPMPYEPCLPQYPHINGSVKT

On to `Cn1cc(-c2ccn3c(-c4cc(NCC(C)(C)O)nc(-c5ccc(F)cc5F)c4)cnc3c2)cn1` [Compound 9], for which the values for the IC50 against human VEGFR2 and against human FGFR2 were 3.73 nM and 4.92 nM, respectively.
`Cn1cc(-c2ccn3c(-c4cc(NC5CCOCC5)nc(-c5ccc(F)cc5F)c4)cnc3c2)cn1` [Compound 10] displayed an IC50 on human FGFR2 of 17.1 nM.
As to `Cn1cc(-c2ccn3c(-c4cc(NCC5COC(C)(C)O5)nc(-c5ccc(F)cc5F)c4)cnc3c2)cn1` (stereo not drawn) [Compound 11], the IC50 was 7.57 nM against human VEGFR2 and 2.27 nM on human FGFR2.
Regarding `Cn1cc(-c2ccn3c(-c4cc(NS(C)(=O)=O)cc(-c5ccc(F)cc5F)n4)cnc3c2)cn1` [Formate of compound C, reference compound], the IC50 on human VEGFR2 was 5580 nM; on human FGFR1, 724 nM.
In data set [1] (IV 0.2 mg/kg), `Cn1cc(-c2ccc3c(c2)ncn3-c2cc(NS(=O)(=O)C3CC3)cc(-c3ccc(F)cc3F)c2)cn1` [Trifluoroacetate of compound A, reference compound] came in with a Tlast of 4.00 h, an AUC(0-inf) of 0.717 µM·h, an AUC(0-t) of 0.663 µM·h and a clearance of 9.2 mL/min/kg. In data set [1] (IV 0.2 mg/kg), the half-life is 1.08 h, the MRT last was determined as 1.21 h, the Vd worked out at 0.85 L/kg and the C0 came out at 563 nM. In addition, in data set [1] (PO 1 mg/kg), the Tlast is on record as 8.00 h, the AUC(0-inf) stood at 1.44 µM·h, the exposure AUC(0-t) was 1.41 µM·h and the Tmax came to 1 h. Further, in data set [1] (PO 1 mg/kg), the half-life is 1.4 h, the MRT last came to 2.76 h and the Cmax came to 469 nM. Also, the bioavailability in data set [1] (PO 1 mg/kg vs IV 0.2 mg/kg) came to 40.3%. Also, half-maximal inhibition on human FGFR1 (IC50) was put at 22.3 nM.
Turning to `Cn1cc(-c2ccc3c(c2)ncn3-c2cc(NS(C)(=O)=O)cc(-c3ccc(F)cc3F)c2)cn1` [Trifluoroacetate of compound B, reference compound], the IC50 at human VEGFR2 turned out to be 11.8 nM; against human FGFR2, 22.6 nM.
As for `Cn1cc(-c2ccn3c(-c4cc(NS(=O)(=O)C5CC5)nc(-c5ccc(F)cc5F)c4)cnc3c2)cn1` [Trifluoroacetate salt of compound 1], the IC50 against human VEGFR2 is 3.82 nM. In data set [1] (IV 2 mg/kg), the Tlast is on record as 8.00 h, the AUC(0-inf) stood at 13.7 µM·h, the AUC(0-t) is 13.3 µM·h and the clearance was found to be 4.82 mL/min/kg. In data set [1] (IV 2 mg/kg), the half-life was 1.6 h, the MRT last stood at 2.07 h, the Vd amounted to 0.667 L/kg and the C0 came out at 7530 nM. Also, in data set [1] (IV, mice), the “AUC of intravenous drug exposure compared with the trifluoroacetate of control compound A” value is listed as “doubled” and the “plasma clearance rate compared with the trifluoroacetate of control compound A” value was “nearly decreased the plasma clearance rate by 1 time”. Moreover, in data set [1] (PO 10 mg/kg), the Tlast is 8.00 h, the area under the curve AUC(0-inf) came out at 26.9 µM·h, the AUC(0-t) came to 23.6 µM·h and the Tmax came out at 1 h. In data set [1] (PO 10 mg/kg), the half-life is 2.5 h, the MRT last was determined as 3.12 h and the concentration peaked (Cmax) at 5300 nM. Moreover, the “oral absorption drug exposure compared with the trifluoroacetate of control compound A” value in data set [1] (PO, mice) was “nearly doubled”. The bioavailability in data set [1] (PO 10 mg/kg vs IV 2 mg/kg) worked out at 39.4%. This compound also returned an IC50 on human FGFR2 of 2.86 nM. Further, it took 4.55 nM to reach half-maximal inhibition against human FGFR1 (IC50).
As to `Cc1cc(F)ccc1-c1cc(-c2cnc3cc(-c4cnn(C)c4)ccn23)cc(NS(=O)(=O)C2CC2)n1` [Trifluoroacetate salt of compound 2], the values for the IC50 against human VEGFR2 and on human FGFR2 were 67.3 nM and 46.1 nM, respectively.
For `CCOC(=O)Nc1cc(-c2cnc3cc(-c4cnn(C)c4)ccn23)cc(-c2ccc(F)cc2F)n1` [Trifluoroacetate salt of compound 3] the same measures were 1.99 nM and 3.26 nM.
In the case of `CCOC(=O)Nc1cc(-c2cnc3cc(-c4cnn(C)c4)ccn23)cc(-c2ccc(F)cc2C)n1` [Trifluoroacetate salt of compound 4], the IC50 at human VEGFR2 stood at 24.3 nM; against human FGFR2, 45.2 nM.
On to `CCS(=O)(=O)Nc1cc(-c2cnc3cc(-c4cnn(C)c4)ccn23)cc(-c2ccc(F)cc2F)n1` [Trifluoroacetate salt of compound 6], for which the IC50 at human VEGFR2 worked out at 8.09 nM; against human FGFR2, 7.36 nM.
On to `Cn1cc(-c2ccn3c(-c4cc(NS(C)(=O)=O)nc(-c5ccc(F)cc5F)c4)cnc3c2)cn1` [Trifluoroacetate salt of compound 7], for which the IC50 at human VEGFR2 turned out to be 2.94 nM. Further, in data set [1] (IV 0.2 mg/kg), the Tlast was found to be 4.00 h, the AUC(0-inf) was found to be 0.871 µM·h, the area under the curve AUC(0-t) was determined as 0.81 µM·h and the clearance amounted to 7.96 mL/min/kg. Further, in data set [1] (IV 0.2 mg/kg), the half-life was 0.968 h, the MRT last came to 1.08 h, the Vd was 0.661 L/kg and the C0 worked out at 735 nM. In addition, in data set [1] (PO 1 mg/kg), the Tlast is on record as 8.00 h, the AUC(0-inf) was 2.58 µM·h, the AUC(0-t) is 2.53 µM·h and the Tmax was found to be 1 h. Moreover, in data set [1] (PO 1 mg/kg), the half-life was 1.33 h, the MRT last was determined as 2.35 h and the concentration peaked (Cmax) at 973 nM. Further, the bioavailability in data set [1] (PO 1 mg/kg vs IV 0.2 mg/kg) turned out to be 59.3%. At human FGFR2, this compound yielded an IC50 of 3.22 nM. Also, in data set [2], the “T/C (%) (relative tumor proliferation rate) D25” value is reported as 31% and the “TGI (%) (tumor growth inhibition rate) D25” value is listed as 69%.
With `CCCS(=O)(=O)Nc1cc(-c2cnc3cc(-c4cnn(C)c4)ccn23)cc(-c2ccc(F)cc2F)n1` [Trifluoroacetate salt of compound 8], the IC50 on human VEGFR2 came to 14.7 nM; against human FGFR2, 7.18 nM.
For `CCOC(=O)Nc1cc(-c2cnc3cc(-c4cnn(C)c4C)ccn23)cc(-c2ccc(F)cc2F)n1` [Trifluoroacetate salt of compound 12] the same measures were 9.27 nM and 19.4 nM.
For `Cc1c(-c2ccn3c(-c4cc(NS(C)(=O)=O)nc(-c5ccc(F)cc5F)c4)cnc3c2)cnn1C` [Trifluoroacetate salt of compound 13], on human VEGFR2, the IC50 worked out at 11.1 nM.
